Data reported in patent publication US20260373103A1, “COMPOSITIONS AND METHODS FOR PREVENTING CARDIOMYOPATHY” (OHIO STATE INNOVATION FOUNDATION, priority 2022, published 2026).

Test system: HeLa-Parkin or HeLa-Parkin/USP30 cells
Assay: Mitochondrial membrane potential (TMRM signal)
Type: cell-based
Conditions: FCCP 10 μM
Method: ΔΨm was measured using a fluorescence microplate reader (BioTek Instruments) in cells preincubated with Tetramethylrhodamine methyl ester (TMRM, Thermo Scientific) following manufacturer's instructions. Cells were washed in PBS before resuspension in Hank's balanced salt solution (HBSS; 156 mM NaCl, 3 mM KCl, 2 mM MgSO4, 1.25 mM KH2PO4, 2 mM CaCl2), 10 mM glucose and 10 mM HEPES; pH adjusted to 7.35 with NaOH) (1.0×10^6 cells/ml) containing 50 nM TMRM. For each individual experiment, average TMRM fluorescence was normalized to control cells.
We initially analyzed mitochondrial function using Tetramethylrhodamine (TMRM), a dye requiring mitochondrial membrane potential to accumulate within the mitochondria.

SMILES: N#CC(C#N)=NNc1ccc(OC(F)(F)F)cc1 [FCCP, Carbonyl cyanide-p-trifluoromethoxyphenylhydrazone, reference compound]
- TMRM staining (mitochondrial membrane potential): significant loss of staining
